Tests used:
[1] = design: method as in PMID 29206032, PMID 32548431; conditions: ref [24],[25],[26]; cited from earlier work
B. mandrillaris cysts = experiment: Excystation assay, B. mandrillaris cysts; format: cell-based; conditions: Balamuthia mandrillaris; 100 μM, after negating effects of solvent alone; read-out: Inhibition of excystation of B. mandrillaris
Description: (§1) Briefly, 5 × 10^5 amoebae cysts (N. fowleri and B. mandrillaris cells) were incubated with 100 μM drugs and/or solvent in 24-well plates containing RPMI-1640 on HeLa monolayers at 37 °C and 5% CO2 until around 75% of the cysts in RPMI-1640 alone have excysted. The RPMI-1640 alone was used as a negative control while DMSO and ethanol were used as a solvent control and 100 μM miltefosine was used as positive control. Live trophozoites (amoebae that excysted) were then quantified by counting live (unstained) cells, after addition of 0.1% Trypan blue to each well, using a haemocytometer. Percentage inhibition is defined as: [(Number of trophozoites in untreated well − Number of trophozoites in treated well)/Number of trophozoites in untreated well)] × 100. The data are representative of the mean ± standard error of several independent experiments performed in duplicate.
(§2) Figure 3 (A) Inhibition of excystation of N. fowleri cysts. N. fowleri cysts were incubated with 100 μM drugs and/or solvent in 24-well plates containing RPMI-1640 on HeLa monolayers for 24 h and number of viable trophozoites were then enumerated. Percentage inhibition of excystation was calculated by: [((RPMI trophozoite cell count − trophozoite cell count for sample)/RPMI trophozoite cell count) × 100)]. The activities of solvents alone were negated from the activities of the compounds. The data is presented as the mean ± standard error (*: p ˂ 0.05, **: p < 0.01, ***: p < 0.001 using student t-test; two tailed distribution). (B) Inhibition of excystation of B. mandrillaris cysts. B. mandrillaris cysts were incubated with 100 μM drugs and/or solvent in 24-well plates containing RPMI-1640 on HeLa monolayers for 24 h and number of viable trophozoites were then enumerated. Percentage inhibition of excystation was calculated by: [((RPMI trophozoite cell count − trophozoite cell count for sample)/RPMI trophozoite cell count) × 100)]. The activities of solvents alone were negated from the activities of the compounds. The data is presented as the mean ± standard error (*: p ˂ 0.05, **: p < 0.01, ***: p < 0.001 using student t-test; two tailed distribution).

[2] = system: B. mandrillaris trophozoites; experiment: Amoebicidal assay against B. mandrillaris trophozoites (Trypan blue); format: cell-based, Balamuthia mandrillaris; conditions: for EC50: Balamuthia mandrillaris, trophozoites, 24 h, Trypan blue, read-out: Half maximal effective concentration (EC50), B. mandrillaris
Description: (§3) Amoebicidal assays were performed as previously described. Briefly, 5 × 10^5 amoebae (N. fowleri and B. mandrillaris cells) were incubated with drugs and/or solvents in 24-well plates in RPMI-1640. Amoebae were incubated with RPMI-1640 for negative controls while DMSO and ethanol were used as solvent control. For the positive control, the anti-amoebic drug, 100 μM miltefosine was used. Plates were incubated at 37 °C and 5% CO2 for 24 h. Next, 0.1% Trypan blue was added to each well. […] The number of live cells (i.e., unstained) was counted using a haemocytometer to determine amoebicidal effects of various compounds. The data are representative of the mean ± standard error of several experiments performed in duplicate.
(§4) Figure 2 The amoebicidal activities of compounds against B. mandrillaris trophozoites. B. mandrillaris trophozoites were incubated with various concentrations of compounds for 24 h and trophozoites viability was determined using Trypan blue. Percentage amoebicidal activity was calculated by: [((RPMI cell count − cell count for sample)/RPMI cell count) × 100)]. The activities of solvents alone were negated from the activities of the compounds. The data is presented as the mean ± standard error (*: p < 0.05, **: p < 0.01, ***: p < 0.001 using student t-test; two tailed distribution).

HaCaT cells = format: cell-based, human; conditions: LDH release, 24 h, concentration not given
Description: Cytotoxic effects of the drugs were determined as previously described^21. Briefly, the cytotoxic activity of the drugs was investigated against HaCaT cells. […] The LDH assay protocol is based on an enzymatic reaction, i.e., LDH released from the cell oxidizes lactate to generate NADH, which then reacts with water-soluble tetrazolium salt (WST) to generate a yellow color. The intensity of the generated color correlates directly with the number of lyzed cells. Following this, 1% Triton X-100 was added to the positive control well and incubated the plate for 60 min at 37 °C. For negative control, human cells were grown in RPMI alone well. Then, an equal amount of cells supernatant (comprising LDH enzyme) from each well was combined with equal amount of LDH kit reagents and cytotoxicity was determined in proportion to LDH released from human cells using a spectrophotometer at 490 nm. The percentage LDH released was determined as follows: [(Absorbance of sample − Absorbance of control)/(Absorbance for total LDH release − Absorbance of control)] × 100 = percentage cytotoxicity.
Figure 4 Cytotoxic effects of compounds against human cells are depicted. Various concentrations of compounds were incubated with human cells for 24 h at 37 °C and 5% CO2. RPMI alone was used as negative control and triton X-100 was used as positive control. Data are presented as the mean ± standard error of 2 experiments conducted in duplicates.

N. fowleri trophozoites = experiment: Amoebicidal assay against N. fowleri trophozoites (Trypan blue); format: cell-based, Naegleria fowleri; conditions: for minimal effective concentration / EC50: Naegleria fowleri; for minimal effective concentration: compared to solvent control, p < 0.05, 24 h, read-out: Lowest concentration showing significant amoebicidal activity against N. fowleri; for EC50: trophozoites, 24 h, Trypan blue, read-out: Half maximal effective concentration (EC50), N. fowleri
Description: as §3
as §4, with “Figure 1” for “Figure 2”, “against N. fowleri” for “against B. mandrillaris”, “trophozoites. N. fowleri” for “trophozoites. B. mandrillaris”

N. fowleri cysts = experiment: Excystation assay, N. fowleri cysts; format: cell-based, Naegleria fowleri; conditions: Naegleria fowleri; 100 μM, after negating effects of solvent alone; read-out: Inhibition of excystation of N. fowleri
Description: as §1, §2

[3] = summary in discussion, concentration not given

Row | SMILES | BBB Permeability [1] | inhibition at 100 µM (B. mandrillaris cysts) [%] | EC50 [2] [µM] | Cytotoxicity against HaCaT cells (HaCaT cells) | minimal effective concentration (N. fowleri trophozoites) [µM] | EC50 (N. fowleri trophozoites) [µM] | inhibition at 100 µM (N. fowleri cysts) [%] | Amoebicidal activity against B. mandrillaris [2, 3] [%] | Amoebicidal activity against N. fowleri (N. fowleri trophozoites; [3]) [%]
1 | CCOc1cc(CC(=O)N[C@@H](CC(C)C)c2ccccc2N2CCCCC2)ccc1C(=O)O [Repaglinide, 2-ethoxy-4-[2-[[(1S)-3-methyl-1-(2-piperidin-1-ylphenyl)butyl]amino]-2-oxoethyl]benzoic acid] | Negative | < 10 | 31.8 | did not exhibit any cytotoxicity | 50 | 14.3 | 49 | – | –
2 | CCC1=C(C)CN(C(=O)NCCc2ccc(S(=O)(=O)NC(=O)NC3CCC(C)CC3)cc2)C1=O (stereo not shown) [Glimepiride, 4-ethyl-3-methyl-N-[2-[4-[(4-methylcyclohexyl)carbamoylsulfamoyl]phenyl]ethyl]-5-oxo-2H-pyrrole-1-carboxamide] | Positive | < 10 | 63.6 | 6% | 12.5 | 5.2 | 53 | 54 | 92
